Source: PubChem BioAssay (NCI)
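Results reflect a 48-hour exposure of cells in 96-well plates to compound at five concentrations. TGI: total growth inhibition.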

Legend:
Experiment in all cases: inhibition of tumour cell growth, NCI panel, 48 h
MALME-3M melanoma = system: MALME-3M melanoma
OVCAR-3 ovarian = system: OVCAR-3 ovarian
EKVX NSCLC = system: EKVX NSCLC
LOX IMVI melanoma = system: LOX IMVI melanoma
SK-MEL-2 melanoma = system: SK-MEL-2 melanoma
OVCAR-4 ovarian = system: OVCAR-4 ovarian
M14 melanoma = system: M14 melanoma
HOP-62 NSCLC = system: HOP-62 NSCLC
SK-MEL-5 melanoma = system: SK-MEL-5 melanoma
NCI-H460 lung = system: NCI-H460 lung
SF-295 CNS = system: SF-295 CNS
786-0 renal = system: 786-0 renal
UO-31 renal = system: UO-31 renal
DMS 273 small cell lung = system: DMS 273 small cell lung
KM12 colon = system: KM12 colon
LXFL 529 NSCLC = system: LXFL 529 NSCLC
OVCAR-5 ovarian = system: OVCAR-5 ovarian
DLD-1 colon = system: DLD-1 colon
COLO 205 colon = system: COLO 205 colon
A549 NSCLC = system: A549 NSCLC
SK-MEL-28 melanoma = system: SK-MEL-28 melanoma
MOLT-4 leukemia = system: MOLT-4 leukemia
SNB-78 CNS = system: SNB-78 CNS
U251 CNS = system: U251 CNS
K-562 leukemia = system: K-562 leukemia
HL-60(TB) leukemia = system: HL-60(TB) leukemia
CCRF-CEM leukemia = system: CCRF-CEM leukemia
SF-539 CNS = system: SF-539 CNS
OVCAR-8 ovarian = system: OVCAR-8 ovarian
M19-MEL melanoma = system: M19-MEL melanoma
CAKI-1 renal = system: CAKI-1 renal
RXF 393 renal = system: RXF 393 renal
HT29 colon = system: HT29 colon
RXF-631 renal = system: RXF-631 renal
UACC-257 melanoma = system: UACC-257 melanoma
NCI-H23 lung = system: NCI-H23 lung
SR leukemia = system: SR leukemia
NCI-H226 lung = system: NCI-H226 lung
NCI-H522 lung = system: NCI-H522 lung
ACHN renal = system: ACHN renal
XF 498 CNS = system: XF 498 CNS
HCT-116 colon = system: HCT-116 colon
SNB-75 CNS = system: SNB-75 CNS
SK-OV-3 ovarian = system: SK-OV-3 ovarian
KM20L2 colon = system: KM20L2 colon
A498 renal = system: A498 renal
HCC-2998 colon = system: HCC-2998 colon
SF-268 CNS = system: SF-268 CNS
TK-10 renal = system: TK-10 renal
SNB-19 CNS = system: SNB-19 CNS
IGROV1 ovarian = system: IGROV1 ovarian
SW-620 colon = system: SW-620 colon
SN12C renal = system: SN12C renal
UACC-62 melanoma = system: UACC-62 melanoma
HCT-15 colon = system: HCT-15 colon
RPMI-8226 leukemia = system: RPMI-8226 leukemia
DMS 114 small cell lung = system: DMS 114 small cell lung
HOP-18 NSCLC = system: HOP-18 NSCLC
HOP-92 NSCLC = system: HOP-92 NSCLC

COc1ccc(=[O+]C)c2nssc1-2
TGI (MALME-3M melanoma): > 100 µM
TGI (OVCAR-3 ovarian): > 100 µM
TGI (EKVX NSCLC): > 100 µM
TGI (LOX IMVI melanoma): > 100 µM
TGI (SK-MEL-2 melanoma): > 100 µM
TGI (OVCAR-4 ovarian): > 100 µM
TGI (M14 melanoma): > 100 µM
TGI (HOP-62 NSCLC): > 100 µM
TGI (SK-MEL-5 melanoma): 35.8 µM
TGI (NCI-H460 lung): > 100 µM
TGI (SF-295 CNS): > 100 µM
TGI (786-0 renal): > 100 µM
TGI (UO-31 renal): > 100 µM
TGI (DMS 273 small cell lung): > 100 µM
TGI (KM12 colon): > 100 µM
TGI (LXFL 529 NSCLC): > 100 µM
TGI (OVCAR-5 ovarian): > 100 µM
TGI (DLD-1 colon): > 100 µM
TGI (COLO 205 colon): > 100 µM
TGI (A549 NSCLC): > 100 µM
TGI (SK-MEL-28 melanoma): > 100 µM
TGI (MOLT-4 leukemia): > 100 µM
TGI (SNB-78 CNS): > 100 µM
TGI (U251 CNS): 79.6 µM
TGI (K-562 leukemia): > 100 µM
TGI (HL-60(TB) leukemia): > 100 µM
TGI (CCRF-CEM leukemia): > 100 µM
TGI (SF-539 CNS): 48.7 µM
TGI (OVCAR-8 ovarian): > 100 µM
TGI (M19-MEL melanoma): 40.2 µM
TGI (CAKI-1 renal): > 100 µM
TGI (RXF 393 renal): > 100 µM
TGI (HT29 colon): > 100 µM
TGI (RXF-631 renal): > 100 µM
TGI (UACC-257 melanoma): 71.5 µM
TGI (NCI-H23 lung): > 100 µM
TGI (SR leukemia): > 100 µM
TGI (NCI-H226 lung): > 100 µM
TGI (NCI-H522 lung): > 100 µM
TGI (ACHN renal): > 100 µM
TGI (XF 498 CNS): > 100 µM
TGI (HCT-116 colon): > 100 µM
TGI (SNB-75 CNS): > 100 µM
TGI (SK-OV-3 ovarian): > 100 µM
TGI (KM20L2 colon): > 100 µM
TGI (A498 renal): > 100 µM
TGI (HCC-2998 colon): > 100 µM
TGI (SF-268 CNS): > 100 µM
TGI (TK-10 renal): > 100 µM
TGI (SNB-19 CNS): > 100 µM
TGI (IGROV1 ovarian): > 100 µM
TGI (SW-620 colon): > 100 µM
TGI (SN12C renal): > 100 µM
TGI (UACC-62 melanoma): 67.7 µM

O=C(O)C1(c2ccccc2)CCCNCC1 (stereo not given)
TGI (MALME-3M melanoma): > 100 µM
TGI (OVCAR-3 ovarian): > 100 µM
TGI (EKVX NSCLC): > 100 µM
TGI (LOX IMVI melanoma): > 100 µM
TGI (SK-MEL-2 melanoma): > 100 µM
TGI (OVCAR-4 ovarian): > 100 µM
TGI (M14 melanoma): > 100 µM
TGI (HOP-62 NSCLC): > 100 µM
TGI (HCT-15 colon): > 100 µM
TGI (SK-MEL-5 melanoma): > 100 µM
TGI (NCI-H460 lung): > 100 µM
TGI (RPMI-8226 leukemia): > 100 µM
TGI (DMS 114 small cell lung): > 100 µM
TGI (HOP-18 NSCLC): > 100 µM
TGI (SF-295 CNS): > 100 µM
TGI (786-0 renal): > 100 µM
TGI (UO-31 renal): > 100 µM
TGI (DMS 273 small cell lung): > 100 µM
TGI (KM12 colon): > 100 µM
TGI (LXFL 529 NSCLC): > 100 µM
TGI (OVCAR-5 ovarian): > 100 µM
TGI (DLD-1 colon): > 100 µM
TGI (COLO 205 colon): > 100 µM
TGI (A549 NSCLC): > 100 µM
TGI (SK-MEL-28 melanoma): > 100 µM
TGI (MOLT-4 leukemia): > 100 µM
TGI (SNB-78 CNS): > 100 µM
TGI (U251 CNS): > 100 µM
TGI (K-562 leukemia): > 100 µM
TGI (CCRF-CEM leukemia): > 100 µM
TGI (OVCAR-8 ovarian): > 100 µM
TGI (M19-MEL melanoma): > 100 µM
TGI (CAKI-1 renal): > 100 µM
TGI (RXF 393 renal): > 100 µM
TGI (HT29 colon): > 100 µM
TGI (RXF-631 renal): > 100 µM
TGI (UACC-257 melanoma): > 100 µM
TGI (NCI-H23 lung): > 100 µM
TGI (SR leukemia): > 100 µM
TGI (NCI-H226 lung): > 100 µM
TGI (NCI-H522 lung): > 100 µM
TGI (ACHN renal): > 100 µM
TGI (HOP-92 NSCLC): > 100 µM
TGI (HCT-116 colon): > 100 µM
TGI (SNB-75 CNS): > 100 µM
TGI (SK-OV-3 ovarian): > 100 µM
TGI (KM20L2 colon): > 100 µM
TGI (A498 renal): > 100 µM
TGI (HCC-2998 colon): > 100 µM
TGI (SF-268 CNS): > 100 µM
TGI (TK-10 renal): > 100 µM
TGI (SNB-19 CNS): > 100 µM
TGI (IGROV1 ovarian): > 100 µM
TGI (SW-620 colon): > 100 µM
TGI (SN12C renal): > 100 µM
TGI (UACC-62 melanoma): > 100 µM
